Among the targets are A/M2 PR8/34 (Influenza A virus, UniProt P06821); A/M2 PR8/34 (V27S31) (Influenza A virus, UniProt P06821, A27V/N31S); B/M2 Lee40 (Influenza B virus, UniProt P03493).
Format in all cases: biochemical
The target of experiment [1] is A/M2 Udorn72 with a mutation (S31N) (Influenza A virus, UniProt P0DOF5, S31N).

“Also recorded” adds a separate entry of the source.

`NC12CC3CC(CC(C3)C1)C2` [amantadine]: the figures for the “H+ transport across VLP membranes (fluorescence)” value (in experiment [1]; at A/M2 PR8/34; at B/M2 Lee40) were “resistant to inhibition”, “exerted no effect; also recorded: in the presence or absence of amantadine” and “exerted no effect”, respectively. Further, the “H+ translocation across VLP membranes (fluorescence)” value at A/M2 PR8/34 (V27S31) is recorded as “in the absence, but not in the presence of 100 μM of the drug”.

With `CC(N)C12CC3CC(CC(C3)C1)C2` (stereo not drawn) [rimantadine], the “H+ transport across VLP membranes (fluorescence)” value at A/M2 PR8/34 and on B/M2 Lee40 was “exerted no effect” throughout.

The record behind these values is patent US8377691B2 (priority 2006, dated 2013).
